In brackets after ≈: the same amount, converted by molar mass.
Assays:
[1] = test system: P. aeruginosa PAM1154 (MexAB-OprM deleted); type: cell-based, Pseudomonas aeruginosa
[2] = test system: P. aeruginosa PAM1723 (MexAB-OprM overexpressed); type: cell-based, Pseudomonas aeruginosa; settings: for MIC, No Pentamidine / MIC, Pentamidine (40 μg/ml): PAM1723 (MexAB-OprM overexpressed); for MIC, Pentamidine (40 μg/ml): in the presence of pentamidine 40 μg/ml; for decrease of the MIC by pentamidine: PAM1723, pentamidine 40 μg/ml
[3] = test system: P. aeruginosa PAM1626 (lacks all the three efflux pumps); experiment: microbe, parasite or virus in culture; type: cell-based, Pseudomonas aeruginosa; settings: for Levofloxacin MIC in the presence of inhibitor: PAM1626; for MIC: Pseudomonas aeruginosa, read-out: MIC* (MIC for the efflux pump inhibitor)
[4] = test system: P. aeruginosa PAM1020 (wt, basal level of MexAB-OprM); experiment: Levofloxacin potentiation checkerboard assay (broth microdilution); type: cell-based, Pseudomonas aeruginosa; settings: PAM1020; for MIC: Pseudomonas aeruginosa, inhibitor alone, read-out: MIC* (MIC for the efflux pump inhibitor)
Method: (§1) Stock solutions were further diluted, according to the needs of a particular assay, in Mueller Hinton Broth (MHB). Stock solution was stored at −80° C.
(§2) The checkerboard assay was performed in microtiter plates. […] The result of these manipulations is that each well of the microtiter plate contains a unique combination of concentrations of the two agents. The assay was performed in MHB with a final bacterial inoculum of 5×10^5 CFU/ml (from an early-log phase culture). Microtiter plates were incubated during 20 h at 35° C. and were read using a microtiterplate reader (Molecular Devices) at 650 nm as well as visual observation using a microtiter plate reading mirror.
(§3) The test organisms used was PAM1020, which is a wild type strain of P. aeruginosa expressing the basal level of MexAB-OprM, as well as PAM1723, PAM1738, and PAM1753, overexpressing the MexAB-OprM, MexCD-OprJ, and MexEF-OprN pump, respectively.

[5] = test system: P. aeruginosa PAM1753 (nfxC, overexpressing MexEF-OprN); experiment: as above; type: cell-based, Pseudomonas aeruginosa; settings: for Levofloxacin MIC in the presence of inhibitor: PAM1753; for MIC: Pseudomonas aeruginosa, read-out: MIC* (MIC for the efflux pump inhibitor)
Method: as §1, §2, §3

[6] = test system: P. aeruginosa PAM1738 (nfxB, overexpressing MexCD-OprJ); experiment: microbe, parasite or virus in culture; type: cell-based, Pseudomonas aeruginosa; settings: for Levofloxacin MIC in the presence of inhibitor: PAM1738; for MIC: Pseudomonas aeruginosa, read-out: MIC* (MIC for the efflux pump inhibitor)
Method: as §1, §2, §3

[7] = target: MexAB-OprM-mediated efflux of Leu-Nap, PAM1723 cells (Pseudomonas aeruginosa, UniProt P52002); experiment: Leu-Nap accumulation assay; type: cell-based; settings: Leu-Nap 100 μg/ml
[8] = test system: P. aeruginosa PAM1723 (nalB, overexpressing MexAB-OprM); experiment: microbe, parasite or virus in culture; type: cell-based, Pseudomonas aeruginosa; settings: for Levofloxacin MIC in the presence of inhibitor: PAM1723; for MIC: Pseudomonas aeruginosa, read-out: MIC* (MIC for the efflux pump inhibitor), PAM1723, inhibitor alone
Method: as §1, §2, §3
Efflux pump inhibitory activity of several commercially available diamidine analogs was evaluated using the checkerboard assay of Example 1 against the strain of P. aeruginosa overexpressing the MexAB-OprM efflux pump.

Chain of MexAB-OprM-mediated efflux of Leu-Nap, PAM1723 cells (Q51487 18-485): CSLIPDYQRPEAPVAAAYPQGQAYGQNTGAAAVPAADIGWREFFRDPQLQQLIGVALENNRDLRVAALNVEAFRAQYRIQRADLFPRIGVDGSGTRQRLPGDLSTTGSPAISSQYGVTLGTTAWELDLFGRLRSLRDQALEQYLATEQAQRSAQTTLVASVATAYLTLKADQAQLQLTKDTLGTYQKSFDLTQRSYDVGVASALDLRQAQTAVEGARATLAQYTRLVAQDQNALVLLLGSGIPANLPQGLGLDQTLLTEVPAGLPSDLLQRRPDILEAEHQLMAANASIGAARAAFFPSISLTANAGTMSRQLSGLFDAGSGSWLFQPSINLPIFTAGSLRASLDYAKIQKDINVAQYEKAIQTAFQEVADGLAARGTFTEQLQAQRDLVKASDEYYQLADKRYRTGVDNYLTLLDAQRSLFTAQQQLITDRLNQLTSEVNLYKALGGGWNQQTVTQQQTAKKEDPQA
Chain of MexAB-OprM-mediated efflux of Leu-Nap, PAM1723 cells (P52002 whole entry): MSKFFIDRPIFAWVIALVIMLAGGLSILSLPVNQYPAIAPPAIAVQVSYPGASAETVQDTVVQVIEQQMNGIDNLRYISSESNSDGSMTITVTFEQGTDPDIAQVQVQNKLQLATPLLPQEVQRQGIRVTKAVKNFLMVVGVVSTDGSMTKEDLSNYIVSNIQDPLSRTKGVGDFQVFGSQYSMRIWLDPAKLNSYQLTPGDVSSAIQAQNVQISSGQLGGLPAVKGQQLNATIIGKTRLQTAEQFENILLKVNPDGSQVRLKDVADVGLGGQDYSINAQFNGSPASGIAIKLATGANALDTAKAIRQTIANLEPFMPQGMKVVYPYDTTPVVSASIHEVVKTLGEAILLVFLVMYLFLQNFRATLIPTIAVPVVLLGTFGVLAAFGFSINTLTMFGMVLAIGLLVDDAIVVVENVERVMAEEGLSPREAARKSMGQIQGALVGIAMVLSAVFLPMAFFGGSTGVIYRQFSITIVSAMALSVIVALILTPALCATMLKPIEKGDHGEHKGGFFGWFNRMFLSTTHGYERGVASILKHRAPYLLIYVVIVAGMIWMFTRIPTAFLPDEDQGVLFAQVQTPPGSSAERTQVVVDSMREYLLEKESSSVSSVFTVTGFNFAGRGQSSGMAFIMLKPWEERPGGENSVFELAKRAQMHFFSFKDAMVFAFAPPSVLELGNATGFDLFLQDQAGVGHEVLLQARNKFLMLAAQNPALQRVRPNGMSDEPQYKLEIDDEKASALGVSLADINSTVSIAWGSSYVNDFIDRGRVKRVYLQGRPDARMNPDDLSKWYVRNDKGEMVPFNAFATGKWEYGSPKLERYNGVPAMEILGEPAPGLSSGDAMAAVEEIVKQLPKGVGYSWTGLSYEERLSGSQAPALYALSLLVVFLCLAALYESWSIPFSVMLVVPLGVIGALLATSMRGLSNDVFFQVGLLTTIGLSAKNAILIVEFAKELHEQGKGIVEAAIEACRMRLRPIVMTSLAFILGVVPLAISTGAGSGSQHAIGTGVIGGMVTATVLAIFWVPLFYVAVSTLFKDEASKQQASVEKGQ
Chain of MexAB-OprM-mediated efflux of Leu-Nap, PAM1723 cells (P52477 24-383, further chain): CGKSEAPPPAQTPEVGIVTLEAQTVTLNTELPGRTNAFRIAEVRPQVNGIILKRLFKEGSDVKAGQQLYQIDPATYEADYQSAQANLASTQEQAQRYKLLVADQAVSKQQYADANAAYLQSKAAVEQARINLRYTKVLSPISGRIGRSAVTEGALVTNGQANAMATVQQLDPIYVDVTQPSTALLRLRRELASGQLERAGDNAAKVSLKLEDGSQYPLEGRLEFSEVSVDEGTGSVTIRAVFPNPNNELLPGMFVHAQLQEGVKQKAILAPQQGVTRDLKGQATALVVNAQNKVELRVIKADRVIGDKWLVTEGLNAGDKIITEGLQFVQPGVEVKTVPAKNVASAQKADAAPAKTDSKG

Row | SMILES | MIC, No Pentamidine [1] | MIC, Pentamidine (40 μg/ml) [2] | decrease of the MIC by pentamidine [2] | Levofloxacin MIC in the presence of inhibitor ([3]; inhibitor 1.25 μg/ml) | MIC [3] | Levofloxacin MIC in the presence of inhibitor ([4]; inhibitor 1.25 μg/ml) | Levofloxacin MIC in the presence of inhibitor ([4]; inhibitor 2.5 μg/ml) | Levofloxacin MIC in the presence of inhibitor ([4]; inhibitor 5 μg/ml) | Levofloxacin MIC in the presence of inhibitor ([4]; inhibitor 10 μg/ml) | MIC [4] | Levofloxacin MIC in the presence of inhibitor ([5]; inhibitor 1.25 μg/ml) | Levofloxacin MIC in the presence of inhibitor ([5]; inhibitor 2.5 μg/ml) | MIC [5] | Levofloxacin MIC in the presence of inhibitor ([6]; inhibitor 1.25 μg/ml) | Levofloxacin MIC in the presence of inhibitor ([8]; inhibitor 1.25 μg/ml) | Levofloxacin MIC in the presence of inhibitor ([8]; inhibitor 2.5 μg/ml) | Levofloxacin MIC in the presence of inhibitor ([8]; inhibitor 5 μg/ml) | Levofloxacin MIC in the presence of inhibitor ([8]; inhibitor 10 μg/ml) | Levofloxacin MIC in the presence of inhibitor ([8]; inhibitor 20 μg/ml) | MIC [8] | also measured
1 | CC[C@H]1OC(=O)[C@H](C)[C@@H](O[C@H]2C[C@@](C)(OC)[C@@H](O)[C@H](C)O2)[C@H](C)[C@@H](O[C@@H]2O[C@H](C)C[C@H](N(C)C)[C@H]2O)[C@](C)(O)C[C@@H](C)CN(C)[C@H](C)[C@@H](O)[C@]1(C)O [Azithro, azithromycin] | 0.5 µg/mL (≈ 0.668 µM) | 1 | 64 fold |  |  |  |  |  |  |  |  |  |  |  |  |  |  |  |  |  | MIC, No Pentamidine [2]: 64 µg/mL (≈ 85.4 µM)
2 | O=C(N[C@H](CO)[C@H](O)c1ccc([N+](=O)[O-])cc1)C(Cl)Cl [Cm, chloramphenicol] | 1 µg/mL (≈ 3.09 µM) | 8 | 16 fold |  |  |  |  |  |  |  |  |  |  |  |  |  |  |  |  |  | MIC, No Pentamidine [2]: 128 µg/mL (≈ 396 µM)
3 | N=C(N)c1ccc(OCCCOc2ccc(C(=N)N)cc2Br)c(Br)c1 [Dibromopropamidine, dibromopropamidine] |  |  |  | 0.0075 µg/mL | 5 µg/mL (≈ 10.6 µM) | 0.25 µg/mL | 0.25 µg/mL | 0.125 µg/mL | 0.06 µg/mL | 80 µg/mL | 2 µg/mL | 1 µg/mL | 20 µg/mL | 0.5 µg/mL | 2 µg/mL | 1 µg/mL | 0.5 µg/mL | 0.125 µg/mL | 0.06 µg/mL | 80 µg/mL | Levofloxacin MIC in the presence of inhibitor ([3]; inhibitor 2.5 μg/ml): 0.007 µg/mL; Levofloxacin MIC in the presence of inhibitor ([4]; inhibitor 20 μg/ml): 0.03 µg/mL; Levofloxacin MIC in the presence of inhibitor ([4]; inhibitor 40 μg/ml): 0.03 µg/mL; Levofloxacin MIC in the presence of inhibitor ([5]; inhibitor 5 μg/ml): 0.5 µg/mL; Levofloxacin MIC in the presence of inhibitor ([5]; inhibitor 10 μg/ml): 0.125 µg/mL; Levofloxacin MIC in the presence of inhibitor ([6]; inhibitor 2.5 μg/ml): 0.25 µg/mL; Levofloxacin MIC in the presence of inhibitor ([6]; inhibitor 5 μg/ml): 0.125 µg/mL; Levofloxacin MIC in the presence of inhibitor ([6]; inhibitor 10 μg/ml): 0.06 µg/mL; Levofloxacin MIC in the presence of inhibitor ([6]; inhibitor 20 μg/ml): 0.03 µg/mL; Levofloxacin MIC in the presence of inhibitor ([6]; inhibitor 40 μg/ml): 0.03 µg/mL; MIC [6]: 80 µg/mL; inhibitor concentration at which rate of Leu-Nap uptake in PAM1723 and PAM1626 is the same (complete inhibition of efflux) [7]: 20 µg/mL; Levofloxacin MIC in the presence of inhibitor ([8]; inhibitor 40 μg/ml): 0.06 µg/mL
4 | CC[C@H]1OC(=O)[C@H](C)[C@@H](O[C@H]2C[C@@](C)(OC)[C@@H](O)[C@H](C)O2)[C@H](C)[C@@H](O[C@@H]2O[C@H](C)C[C@H](N(C)C)[C@H]2O)[C@](C)(O)C[C@@H](C)C(=O)[C@H](C)[C@@H](O)[C@]1(C)O [Erm, erythromycin] | 8 µg/mL (≈ 10.9 µM) | 64 | 4 fold |  |  |  |  |  |  |  |  |  |  |  |  |  |  |  |  |  | 
5 | N=C(N)c1ccc(OCCCCCCOc2ccc(C(=N)N)cc2)cc1 [Hexamidine, hexamidine] |  |  |  | 0.007 µg/mL | 2.5 µg/mL (≈ 7.05 µM) | 0.125 µg/mL | 0.125 µg/mL | 0.03 µg/mL | 0.007 µg/mL | 20 µg/mL | 2 µg/mL | 2 µg/mL | 20 µg/mL | 0.5 µg/mL | 2 µg/mL | 1 µg/mL | 1 µg/mL | 0.125 µg/mL | 0.015 µg/mL | 40 µg/mL | Levofloxacin MIC in the presence of inhibitor ([5]; inhibitor 5 μg/ml): 1 µg/mL; Levofloxacin MIC in the presence of inhibitor ([5]; inhibitor 10 μg/ml): 0.25 µg/mL; Levofloxacin MIC in the presence of inhibitor ([6]; inhibitor 2.5 μg/ml): 0.5 µg/mL; Levofloxacin MIC in the presence of inhibitor ([6]; inhibitor 5 μg/ml): 0.25 µg/mL; Levofloxacin MIC in the presence of inhibitor ([6]; inhibitor 10 μg/ml): 0.06 µg/mL; Levofloxacin MIC in the presence of inhibitor ([6]; inhibitor 20 μg/ml): 0.015 µg/mL; Levofloxacin MIC in the presence of inhibitor ([6]; inhibitor 40 μg/ml): 0.007 µg/mL; MIC [6]: 80 µg/mL; inhibitor concentration at which rate of Leu-Nap uptake in PAM1723 and PAM1626 is the same (complete inhibition of efflux) [7]: 20 µg/mL
6 | N=C(N)c1ccc(/N=N/Nc2ccc(C(=N)N)cc2)cc1 [MP 601206] |  |  |  |  |  |  |  |  |  |  |  |  |  |  | 2 µg/mL | 2 µg/mL | 1 µg/mL | 1 µg/mL | 0.5 µg/mL | 80 µg/mL | Levofloxacin MIC in the presence of inhibitor ([8]; inhibitor 40 μg/ml): 0.06 µg/mL
7 | Cl.Cl.N=C(N)c1cccc(NC(=O)Nc2cccc(C(=N)N)c2)c1 [MP 601319] |  |  |  |  |  |  |  |  |  |  |  |  |  |  | 2 µg/mL | 2 µg/mL | 2 µg/mL | 2 µg/mL | 1 µg/mL | > 80 µg/mL | Levofloxacin MIC in the presence of inhibitor ([8]; inhibitor 40 μg/ml): 0.25 µg/mL; Levofloxacin MIC in the presence of inhibitor ([8]; inhibitor 80 μg/ml): 0.125 µg/mL
8 | N=C(N)c1ccc(OCCCOc2ccc(C(=N)N)cc2)cc1 [Propamidine, propamidine] |  |  |  | 0.015 µg/mL | 10 µg/mL (≈ 32 µM) | 0.25 µg/mL | 0.125 µg/mL | 0.125 µg/mL | 0.06 µg/mL | 40 µg/mL | 4 µg/mL | 2 µg/mL | 5 µg/mL | 0.5 µg/mL | 2 µg/mL | 2 µg/mL | 1 µg/mL | 0.5 µg/mL | 0.25 µg/mL | 40 µg/mL | Levofloxacin MIC in the presence of inhibitor ([3]; inhibitor 2.5 μg/ml): 0.007 µg/mL; Levofloxacin MIC in the presence of inhibitor ([3]; inhibitor 5 μg/ml): 0.007 µg/mL; Levofloxacin MIC in the presence of inhibitor ([4]; inhibitor 20 μg/ml): 0.03 µg/mL; Levofloxacin MIC in the presence of inhibitor ([6]; inhibitor 2.5 μg/ml): 0.5 µg/mL; Levofloxacin MIC in the presence of inhibitor ([6]; inhibitor 5 μg/ml): 0.25 µg/mL; Levofloxacin MIC in the presence of inhibitor ([6]; inhibitor 10 μg/ml): 0.125 µg/mL; Levofloxacin MIC in the presence of inhibitor ([6]; inhibitor 20 μg/ml): 0.015 µg/mL; MIC [6]: 40 µg/mL; inhibitor concentration at which rate of Leu-Nap uptake in PAM1723 and PAM1626 is the same (complete inhibition of efflux) [7]: 160 µg/mL

From patent publication US7947741B2, “Use and administration of bacterial efflux pump inhibitors” (Mpex Pharmaceuticals, Inc., priority 2004, dated 2011)
